Data on 25 compounds can be found in PubChem BioAssay (NCI).

Test systems include DLD-1 colon; DMS 114 small cell lung; DMS 273 small cell lung; KM20L2 colon; MDA-MB-435; PC-3 prostate; MDA-N; LXFL 529 NSCLC.
Common to all, as to experiment: inhibition of tumour cell growth, NCI panel, 48 h

Molecules are shown by their SMILES. Where “and” joins values, the source holds several entries; their conditions need not be identical. Identical values can stand only once.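 These data come from cells grown in 96-well plates and exposed to compound for 48 hours at five concentrations. At the GI50, growth is halved. TGI: total growth inhibition.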 Where only a bound is given, the exact number is not on record here.

As for `Cn1cc(C(=O)C[n+]2ccccc2)c2ccccc21`, the TGI with DLD-1 colon, in the assay on DMS 114 small cell lung, with DMS 273 small cell lung and with KM20L2 colon was over 100 µM each time.

As to `CCNC(=O)O[C@H]1CN[C@H](C#Cc2cc3ncnc(Nc4ccc(OCc5cccc(F)c5)c(Cl)c4)c3s2)C1`, in the assay with MDA-MB-435, the GI50 is 9.27 µM and the TGI was over 25 µM. For the same compound, in the assay on PC-3 prostate, the GI50 was 5.93 µM and the TGI is over 25 µM.

Turning to `COc1cc(C2CC(c3ccc(Nc4ccnc5cc(Cl)ccc45)cc3)=NN2c2ccc(Cl)cc2)cc(OC)c1OC` (stereo not drawn), in the assay with MDA-MB-435, the GI50 was 0.329 µM and the TGI came to 2.05 µM. For the same compound, in the assay on PC-3 prostate, the GI50 is 1.47 µM and the TGI is over 100 µM.

Consider `Cc1ccc(Cl)cc1NC(=O)c1sc2nc3c(cc2c1N)C(=O)CCC3`, for which, in the assay on MDA-MB-435, the GI50 was 1.1 µM and the TGI came out at 5.04 µM. Moreover, in the assay with PC-3 prostate, the GI50 is 4.34 µM and the TGI is over 100 µM.

On to `O=C1CCc2c(sc3[nH]c(=S)n(Cc4ccc(Cl)cc4)c(=O)c23)C1`, for which the GI50 in the assay on MDA-MB-435 is 1.44 µM; in the assay with PC-3 prostate it was 0.309 µM. The results for the TGI with MDA-MB-435 and in the assay on PC-3 prostate were 8.33 µM and over 35.8 µM, respectively.

Regarding `CSc1nc(SC)c2c(CO)c(Br)n(Cc3ccccc3)c2n1`, the TGI in the assay on MDA-MB-435, in the assay on MDA-N and in the assay with PC-3 prostate was over 100 µM throughout.

Turning to `C=C1CC2(OC1=O)C(=O)Nc1ccccc12` (stereo not drawn), the GI50 with MDA-MB-435 was 3.57 µM; with PC-3 prostate, 5.26 µM. Besides, the TGI in the assay on MDA-MB-435 amounted to 14.9 µM; with PC-3 prostate, 18.8 µM.

As to `N#Cc1cccc(/C=N/N=C(\N)NO)c1`, the TGI with DLD-1 colon, in the assay with DMS 273 small cell lung and in the assay with LXFL 529 NSCLC was over 100 µM in each case.

As for `CN(Cc1cc(C(C)(C)C)cc(Br)c1O)Cc1cc(C(C)(C)C)cc(Br)c1O`, the TGI was determined as 15.9 µM with MDA-MB-435, 15.9 µM in the assay on MDA-N and 9.32 µM with PC-3 prostate.

For the compound `COc1cc(Nc2ncc(F)c(Nc3ccc4c(n3)N(COP(=O)(O)O)C(=O)C(C)(C)O4)n2)cc(OC)c1OC`, in the assay on MDA-MB-435, the GI50 was 2.78 µM and 2.67 µM; the TGI was 22 µM and > 10 µM. Further, in the assay on PC-3 prostate, the GI50 was 2.1 µM and 4.17 µM; the TGI is 22.6 µM and > 10 µM.

As for `CCN1CCN(CC(=O)N2c3cccc4cccc(c34)N(C(=O)CN3CCN(CC)CC3)C2c2cn(-c3ccccc3)nc2-c2cccc([N+](=O)[O-])c2)CC1`, in the assay with MDA-MB-435, the GI50 is 1.86 µM and the TGI turned out to be 3.54 µM. Moreover, in the assay on PC-3 prostate, the GI50 is 1.48 µM and the TGI was 3.14 µM.

For `CCN(CC)c1ccc(C(=O)c2ccc(N(CC)CC)cc2)cc1`, in the assay on MDA-MB-435, the GI50 was 0.0694 µM and the TGI came to 0.43 µM. In addition, in the assay with PC-3 prostate, the GI50 was 0.452 µM and the TGI was over 100 µM.

Regarding `COC(=O)[C@@H](C)C[C@H](Cc1ccccc1)NC(=O)c1csc([C@@H](C[C@H](C(C)C)N(C)C(=O)[C@@H](NC(=O)[C@H]2CCCCN2C)C2CC2)OC(C)=O)n1`, the GI50 in the assay with MDA-MB-435 is under 0.00165 µM; in the assay on PC-3 prostate it was 0.000211 µM and 0.00165 µM. Besides, the TGI with MDA-MB-435 was under 0.00165 µM; in the assay with PC-3 prostate, over 16.5 µM.

Turning to `Cc1cnc(C(=O)NNc2nc3sc4c(c3c(=O)n2C)C(C)CCC4)cn1` (stereo not drawn), in the assay on MDA-MB-435, the GI50 was 0.751 µM and the TGI amounted to 7.26 µM. Also, in the assay with PC-3 prostate, the GI50 was 0.465 µM and the TGI came to 11.2 µM.

With `Cc1cc(N2CCOCC2)cc2[nH]c(-c3c(NC[C@@H](O)c4cccc(Cl)c4)cc[nH]c3=O)nc12`, the GI50 in the assay with MDA-MB-435 is 1.07 µM; in the assay with PC-3 prostate it was 3.7 µM. The values for the TGI in the assay on MDA-MB-435 and in the assay on PC-3 prostate were 7.9 µM and over 100 µM, respectively.

For the compound `CCN1CCC(O)(c2ccc(Cl)cc2)C(C(=O)c2ccc(Cl)cc2)C1` (stereo not drawn), the TGI in the assay on DLD-1 colon, in the assay with DMS 273 small cell lung, with KM20L2 colon and in the assay with LXFL 529 NSCLC was over 100 µM throughout.

Take `O=C1c2ccccc2-c2c1c1ccccc1c(=O)n2CCCn1ccnc1`: in the assay on MDA-MB-435, the GI50 was 2.74 µM and the TGI is 10.7 µM. Besides, in the assay with PC-3 prostate, the GI50 was 2.04 µM and the TGI was over 100 µM.

As for `O=C(c1ccccc1)c1cn(/N=C\c2ccccc2)c(=O)nc1-c1ccccc1`, the TGI in the assay on DLD-1 colon, in the assay on DMS 114 small cell lung, in the assay on KM20L2 colon and in the assay with LXFL 529 NSCLC was over 100 µM each time.

Turning to `CCOc1ccc2nc(NC(=O)C(=O)C(c3cnc4ccccc4n3)[N+](=O)[O-])sc2c1` (stereo not drawn), the TGI in the assay on MDA-N and in the assay with PC-3 prostate was over 100 µM in each case.

For the compound `C[N+]1=C(/C=C\C=C\c2ccccc2)C(C)(C)c2ccccc21`, in the assay on MDA-MB-435, the GI50 is 2.01 µM and the TGI came out at 5.17 µM. Moreover, in the assay with PC-3 prostate, the GI50 was 3.54 µM and the TGI stood at 14.9 µM.

For the compound `CC(C)=CC1=C2C3=C(C(=O)C4(O)Oc5c(C)c6c7c(c5OC24C)[C@@H](C)CC[C@@H]7[C@@H](C)C[C@H]6C=C(C)C)C(C)CCC3C(C)C1` (stereo partly drawn), in the assay with MDA-MB-435, the GI50 is over 100 µM and the TGI was over 100 µM. In addition, in the assay on PC-3 prostate, the GI50 was over 100 µM and the TGI is over 100 µM.

For the compound `Cn1cc(-c2ccc(-c3ccc(C4=NC5(CC5)C(=O)N4C[C@@H]4CCN(C(=O)C5CC5)C4)cc3)cc2)cn1`, in the assay on MDA-MB-435, the GI50 is 10.4 µM and the TGI worked out at 38.9 µM. Besides, in the assay with PC-3 prostate, the GI50 is 22.8 µM and the TGI was over 100 µM.

For `Cc1cnc(C(=O)Nc2nc3ccc(S(=O)(=O)Nc4ccc(C5(C(F)(F)F)CC5)cc4)cc3[nH]2)cn1`, in the assay with MDA-MB-435, the GI50 was 0.0571 µM and the TGI is 0.238 µM. In the assay on PC-3 prostate, the GI50 is 0.311 µM and the TGI is 4.39 µM.

Regarding `Cc1ncc(C(=O)Nc2ccc(CN3CCN(C)CC3)c(C(F)(F)F)c2)cc1C#Cc1cnc(N)cc1C#N`, in the assay on MDA-MB-435, the GI50 was 0.084 µM and the TGI is 1.61 µM. For the same compound, in the assay on PC-3 prostate, the GI50 is 0.71 µM and the TGI worked out at 3.48 µM.

For the compound `Clc1ccc(C(n2cc(Br)cn2)n2cc(Br)cn2)cc1`, the TGI stood at 36.8 µM in the assay on DMS 273 small cell lung and 29.5 µM in the assay with LXFL 529 NSCLC.
